One block for each molecule: values may come before it.
Key:
[1] = molecular target: T1, Endothelin receptor type B (Rattus norvegicus, UniProt P21451); experiment: Tested for its inhibitory activity against Endothelin B receptor
T1 sequence (P21451 whole entry): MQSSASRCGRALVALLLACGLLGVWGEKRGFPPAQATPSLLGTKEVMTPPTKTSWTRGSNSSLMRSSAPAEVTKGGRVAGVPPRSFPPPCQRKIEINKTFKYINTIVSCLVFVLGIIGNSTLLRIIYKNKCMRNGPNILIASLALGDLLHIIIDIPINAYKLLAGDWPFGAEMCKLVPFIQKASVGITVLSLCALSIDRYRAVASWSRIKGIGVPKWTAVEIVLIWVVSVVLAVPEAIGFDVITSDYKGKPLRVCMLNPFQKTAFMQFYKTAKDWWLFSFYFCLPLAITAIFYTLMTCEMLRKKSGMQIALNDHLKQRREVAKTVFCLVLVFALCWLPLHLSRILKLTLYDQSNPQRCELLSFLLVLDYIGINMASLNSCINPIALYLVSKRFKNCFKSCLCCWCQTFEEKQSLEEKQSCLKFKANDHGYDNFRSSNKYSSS

Endothelin-1 receptor [2] = molecular target: T2, Endothelin-1 receptor (Sus scrofa, UniProt Q29010); experiment: Tested for its inhibitory activity against Endothelin A receptor
T2 sequence (Q29010 whole entry): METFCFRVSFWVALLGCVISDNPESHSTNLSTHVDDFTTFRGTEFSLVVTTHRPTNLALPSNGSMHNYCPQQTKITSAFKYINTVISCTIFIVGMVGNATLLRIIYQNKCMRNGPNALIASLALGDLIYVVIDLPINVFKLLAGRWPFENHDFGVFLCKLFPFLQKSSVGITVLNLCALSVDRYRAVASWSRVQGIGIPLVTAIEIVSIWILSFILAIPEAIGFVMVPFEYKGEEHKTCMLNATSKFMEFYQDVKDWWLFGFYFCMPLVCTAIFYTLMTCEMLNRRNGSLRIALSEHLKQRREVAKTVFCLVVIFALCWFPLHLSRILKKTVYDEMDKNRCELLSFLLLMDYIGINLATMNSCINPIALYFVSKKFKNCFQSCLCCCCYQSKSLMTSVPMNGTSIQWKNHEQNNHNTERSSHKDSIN

[3] = molecular target: T1, Endothelin receptor type B; experiment: Tested for its inhibitory activity against Endothelin B receptor; Compound was inactive
Endothelin-1 receptor [4] = molecular target: T2, Endothelin-1 receptor; experiment: Tested for its inhibitory activity against Endothelin A receptor; inactive
Rattus norvegicus [5] = experiment: Tested for the dose at which depressor response attenuated by intravenous administration in conscious rat; assay type: functional
Oryctolagus cuniculus [6] = species on record: Oryctolagus cuniculus; experiment: Tested for inhibition of ET-1 induced contractile response in isolated rabbit aorta at the concentration of 10 uM; assay type: functional
[7] = molecular target: Voltage-gated L-type calcium channel (Rattus norvegicus, UniProt P22002+Q02485+P27732); experiment: Inhibition of [3H]PN-200-110 binding to L-type calcium channels in rat cortex membranes.; assay type: cell membranes, Membrane
[8] = molecular target: T1, Endothelin receptor type B; experiment: Tested for its ability to inhibit the binding of [125I]ET1 to the Endothelin B receptor in rat cerebellum membranes.; assay type: cell membranes, Membrane
Oryctolagus cuniculus [9] = species on record: Oryctolagus cuniculus; experiment: Tested for inhibition of ET-1 induced contractile response in isolated rabbit aorta at the concentration of 0.1 uM; assay type: functional
Oryctolagus cuniculus [10] = species on record: Oryctolagus cuniculus; experiment: Tested for inhibition of ET-1 induced contractile response in isolated rabbit aorta at the concentration of 1 uM; assay type: functional
[11] = Tested for inhibition of ET-1 induced phosphoinositide (PI) turnover in A7r5 smooth muscle cells; assay type: functional, cell-based; conditions: Rattus norvegicus
Rattus norvegicus [12] = experiment: Tested for the dose at which pressor response abolished by intravenous administration; assay type: functional
[13] = The half-life period was reported.; assay type: ADME
Endothelin-1 receptor [14] = molecular target: T2, Endothelin-1 receptor; experiment: Tested for its ability to inhibit the binding of [125I]ET1 to the Endothelin A receptor in porcine thoracic aorta membranes.; assay type: cell membranes

- IC50 [1]: 2700 nM
- IC50 (Endothelin-1 receptor [2]): 422 nM
SMILES: COC(=O)C1=C(C)N=C(C)/C(=C(/O)OC(=O)C2=C(C)N=C(C)/C(=C(/O)OC)[C@@H]2c2cccc([N+](=O)[O-])c2)[C@H]1c1cccc([N+](=O)[O-])c1

- IC50 [3]: Not Active
- IC50 (Endothelin-1 receptor [4]): Not Active
SMILES: COC(=O)C1=C(C)N=C(C)/C(=C(/O)OC(=O)C2=C(C)N=C(C)/C(=C(/O)OC)[C@H]2c2cccc([N+](=O)[O-])c2)[C@@H]1c1cccc([N+](=O)[O-])c1

- IC50 [7]: 592 nM
- IC50 [8]: 295 nM
- EC50 [11]: 143 nM
- half-life [13]: < 1 h
- IC50 (Endothelin-1 receptor [14]): 15.9 nM
SMILES: COC(=O)C1=C(C)N=C(C)/C(=C(/O)OC(=O)C2=C(C)N=C(C)/C(=C(/O)OC)[C@@H]2c2cccc([N+](=O)[O-])c2)[C@@H]1c1cccc([N+](=O)[O-])c1
- Dose (Rattus norvegicus [5]): 0.25 nM/kg
- inhibition at 10 µM (Oryctolagus cuniculus [6]): 77%
- inhibition at 0.1 µM (Oryctolagus cuniculus [9]): 33%
- inhibition at 1 µM (Oryctolagus cuniculus [10]): 42%
- Dose (Rattus norvegicus [12]): 10 mg/kg
